Data as given in publication PMC4938538, “Inhibition of Pig Phosphoenolpyruvate Carboxykinase Isoenzymes by 3-Mercaptopicolinic Acid and Novel Inhibitors” (PLoS ONE, 2016).
Substitutions are numbered along the chain they refer to. pKd: −log10 of the molar value.

Experiments:
[1] = tested on: pyruvate kinase and lactate dehydrogenase; experiment: Inhibition of auxiliary enzymes; type: biochemical; conditions: 25–200 μM compound; data not shown
Source text: Reactions were initiated by addition of 0.5 units of each pyruvate kinase and lactate dehydrogenase.

PEPCK-C 139Met = experiment: Thermal-shift screening of chemical library (ANS fluorescence); type: binding, pig; conditions: 25 μM compound, 4 μM PEPCK-C
Experimental: PEPCK-C effectors were identified from a chemical library using a screening procedure based on a thermal-shift assay. Potential protein effector compounds were dispensed into 96-well microplates. Each well contained 4 μM PEPCK-C in a 20 mM HEPES buffer pH 7.4, plus 1 mM TCEP, 100 μM ANS, 10% DMSO and either 1 or 5 chemical library compounds, each at a 25 μM concentration. […] 50 μL of mineral oil were added to each well to prevent evaporation. In a first screening round, 5 different compounds were present in each well. The binding of effectors to PEPCK-C was assessed by monitoring the thermal denaturation of the enzyme and identifying compounds inducing a stabilizing effect (increase in the unfolding temperature, Tm, compared to the free enzyme) in a FluoDia T70 High Temperature Fluorescence Microplate Reader (Photon Technology International, UK). To obtain Tm values, unfolding curves were fitted to Boltzmann function (Eq 1) using OriginPro 9.1 software. y(T) = A1−A2/1+exp(T−Tm/S)+A2 (1) where A1 and A2 are the asymptotic values of the signal in the pre- and post-transition region of the unfolding curve, respectively, and S is a parameter associated with the slope of the unfolding curve at the Tm and related to the unfolding enthalpy of the enzyme. […] In a second round, the compounds present in the positive wells were individually analyzed to identify the binders.

PEPCK-C 139L = biological target: T1, PEPCK-C 139L (Sus scrofa, UniProt A0A4X1UM84, M139L); experiment: Isothermal titration calorimetry (ITC); type: binding, pig; conditions: 139Leu; for pKd / ΔH: 25°C
T1 construct: His-tag (cleaved yes); made in house; host or cells: Escherichia coli BL21 (DE3)
T1 sequence (A0A4X1UM84 1-622 M139L): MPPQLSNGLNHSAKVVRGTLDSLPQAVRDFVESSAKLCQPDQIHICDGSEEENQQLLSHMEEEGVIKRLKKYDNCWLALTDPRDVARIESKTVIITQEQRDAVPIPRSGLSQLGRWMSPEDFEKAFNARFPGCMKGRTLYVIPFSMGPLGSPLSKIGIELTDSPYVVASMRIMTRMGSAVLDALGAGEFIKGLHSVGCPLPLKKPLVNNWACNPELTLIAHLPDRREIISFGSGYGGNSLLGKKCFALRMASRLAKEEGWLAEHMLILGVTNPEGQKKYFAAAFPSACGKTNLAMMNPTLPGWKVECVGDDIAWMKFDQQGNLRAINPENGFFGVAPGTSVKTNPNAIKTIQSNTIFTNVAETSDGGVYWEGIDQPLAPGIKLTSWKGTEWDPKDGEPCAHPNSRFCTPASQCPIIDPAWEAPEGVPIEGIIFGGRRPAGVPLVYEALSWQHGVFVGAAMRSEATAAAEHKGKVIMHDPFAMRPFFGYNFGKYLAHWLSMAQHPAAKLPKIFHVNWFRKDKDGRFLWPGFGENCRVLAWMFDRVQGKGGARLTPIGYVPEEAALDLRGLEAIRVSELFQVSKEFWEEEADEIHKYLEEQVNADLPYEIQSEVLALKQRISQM
Experimental: (§1) The reference cell was filled with distilled water. […] 2 mM GTP was also added to the enzyme solution in the corresponding experiments. […] In all the assays, a total of 19 injections of 2 μL were added sequentially to the sample cell with a 150 s spacing to ensure that the thermal power signal returned to the baseline prior to the next injection. The binding isotherms (normalized heat effect as a function of the molar ratio) were analyzed with Origin 7 (OriginLab) using a single class of binding sites model. Calorimetric assays were perform in duplicates at least.

PEPCK-C 139M = biological target: T2, PEPCK-C 139M (Sus scrofa, UniProt A0A4X1UM84); experiment: Isothermal titration calorimetry (ITC); type: binding, pig; conditions: 139Met; for pKd / ΔH: 25°C
T2 construct: His-tag (cleaved yes); made in house; host or cells: Escherichia coli BL21 (DE3)
T2 sequence (A0A4X1UM84 1-622): T1 sequence (A0A4X1UM84 1-622 M139L) with L139M
Experimental: as §1

[2] = stated for both isoenzymes, with and without GTP

| SMILES | Inhibition of / interaction with auxiliary enzymes [1] | Increase in Tm compared with controls (PEPCK-C 139Met) | pKd (PEPCK-C 139L; +GTP (2 mM)) | ΔH (PEPCK-C 139L; +GTP (2 mM)) | pKd (PEPCK-C 139L; -GTP) | ΔH (PEPCK-C 139L; -GTP) | n (stoichiometry, number of binding sites), all experiments (PEPCK-C 139L; [2]) | pKd (PEPCK-C 139M; +GTP (2 mM)) | ΔH (PEPCK-C 139M; +GTP (2 mM)) | pKd (PEPCK-C 139M; -GTP) | ΔH (PEPCK-C 139M; -GTP) | n (stoichiometry, number of binding sites), all experiments (PEPCK-C 139M; [2]) |
| --- | --- | --- | --- | --- | --- | --- | --- | --- | --- | --- | --- | --- |
| Cn1nc(-c2ccc(C=NNC(=O)c3ccc(Cl)cc3Cl)s2)cc1C(F)(F)F [compound 2, N'1-({5-[1-methyl-5-(trifluoromethyl)-1H-pyrazol-3-yl]-2-thienyl}methylidene)-2,4-dichlorobenzene-1-carbohydrazide] | slight interaction | around 8 °C | 4.85 | -13.9 kcal/mol | 5.01 | -16.7 kcal/mol | ~1 | 4.72 | -26.6 kcal/mol | 5.36 | -20.5 kcal/mol | ~1 |
| CC(=NNC(=S)NC1CCCCC1)c1sc(-c2cccs2)nc1C [compound 1, N1-cyclohexyl-2-{1-[4-methyl-2-(2-thienyl)-1,3-thiazol-5-yl]ethylidene}hydrazine-1-carbothiamide] | slight inhibition | around 8 °C | – | – | – | – | – | – | – | – | – | – |
| O=C(O)c1ncccc1S [3-MP, 3-mercaptopicolinic acid] | – | – | 4.41 | -58.2 kcal/mol | 4.92 | -32.6 kcal/mol | – | 4.72 | -31.8 kcal/mol | 5.14 | -20.4 kcal/mol | – |
